In PubChem BioAssay AID2060907 (Molecular Pharmacology Branch, DTP, NCI, 2025):
“And” between values parts separate entries of the source, which are not always exact repeats. Equal entries are not always repeated.

Test system: 388556-164-R-J1-PDC complex spheroid viability
Assay: Anticancer human tumor 388556-164-R-J1-PDC patient-derived colon adenocarcinoma cell line growth inhibition [RAS]
Settings: for viability, T/C: stronger effect = lower value; active = viability on the fitted dose curve at most 10% of control; inactive = the rest
Summary of the method: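 Multi-cell-type spheroids: tumor cells plus HUVEC endothelial cells and mesenchymal stem cells. RAS-pathway inhibitors were combined with targeted agents, each dosed in half-log steps down from clinical Cmax, or from 10 microM when Cmax was unknown.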

[1] = curve of first compound, second compound 0.00316 µM
[2] = curve of first compound, second compound 0.01 µM
[3] = curve of first compound, second compound 0.0316 µM
[4] = curve of first compound, second compound 0.1 µM
[5] = curve of first compound, second compound 0.316 µM
[6] = curve of first compound, second compound 1 µM
[7] = second compound 0.00316 µM, first compound 0.0316 µM
[8] = second compound 0.00316 µM, first compound 0.1 µM
[9] = second compound 0.01 µM, first compound 0.0316 µM
[10] = second compound 0.01 µM, first compound 0.1 µM
[11] = second compound 0.0316 µM, first compound 0.0316 µM
[12] = second compound 0.0316 µM, first compound 0.1 µM
[13] = second compound 0.1 µM, first compound 0.0316 µM
[14] = second compound 0.1 µM, first compound 0.1 µM
[15] = second compound 0.316 µM, first compound 0.0316 µM
[16] = second compound 0.316 µM, first compound 0.1 µM
[17] = second compound 1 µM, first compound 0.0316 µM
[18] = second compound 1 µM, first compound 0.1 µM
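Also: spheroids exposed to compound for 7 days before readout.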
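For viability, T/C in this document: 100% = DMSO vehicle control luminescence.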

CCC(CC)c1cc(NC2CCC(N)C2)n2nccc2n1 (configuration not stated) + C=CC(=O)N1CCN(c2nc(OCC3CCCN3C)nc3c(F)c(-c4nc(N)cc(C)c4C(F)(F)F)c(Cl)cc23)C(C)C1
2700 nM: IC50 [2]
inactive: viability, T/C [7] 98.2% | viability, T/C [8] 98.6% | viability, T/C (second compound 0.00316 µM, first compound 0.316 µM) 106% | viability, T/C (second compound 0.00316 µM, first compound 1 µM) 93.9% | viability, T/C (second compound 0.00316 µM, first compound 3.16 µM) 43.6% | viability, T/C (second compound 0.00316 µM, first compound 10 µM) 29.6% | viability, T/C [9] 97.2% | viability, T/C [10] 109% | viability, T/C (second compound 0.01 µM, first compound 0.316 µM) 102% | viability, T/C (second compound 0.01 µM, first compound 1 µM) 96% | viability, T/C (second compound 0.01 µM, first compound 3.16 µM) 42.6% | viability, T/C (second compound 0.01 µM, first compound 10 µM) 27.8% | viability, T/C [11] 96% | viability, T/C [12] 104% | viability, T/C (second compound 0.0316 µM, first compound 0.316 µM) 106% | viability, T/C (second compound 0.0316 µM, first compound 1 µM) 101% | viability, T/C (second compound 0.0316 µM, first compound 3.16 µM) 43.3% | viability, T/C (second compound 0.0316 µM, first compound 10 µM) 29.9% | viability, T/C [13] 97.5% | viability, T/C [14] 95.9% | viability, T/C (second compound 0.1 µM, first compound 0.316 µM) 102% | viability, T/C (second compound 0.1 µM, first compound 1 µM) 98.2% | viability, T/C (second compound 0.1 µM, first compound 3.16 µM) 36.8% | viability, T/C (second compound 0.1 µM, first compound 10 µM) 26.5% | viability, T/C [15] 104% | viability, T/C [16] 112% | viability, T/C (second compound 0.316 µM, first compound 0.316 µM) 109% | viability, T/C (second compound 0.316 µM, first compound 1 µM) 105% | viability, T/C (second compound 0.316 µM, first compound 3.16 µM) 34.6% | viability, T/C (second compound 0.316 µM, first compound 10 µM) 28.5% | viability, T/C [17] 98.6% | viability, T/C [18] 100% | viability, T/C (second compound 1 µM, first compound 0.316 µM) 109% | viability, T/C (second compound 1 µM, first compound 1 µM) 111% | viability, T/C (second compound 1 µM, first compound 3.16 µM) 30.7% | viability, T/C (second compound 1 µM, first compound 10 µM) 27.6%
2460 nM: IC50 [5]
2770 nM: IC50 [3]
2340 nM: IC50 [6]
2730 nM: IC50 [1]
2470 nM: IC50 [4]

CCc1c2c(nc3ccc(O)cc13)-c1cc3c(c(=O)n1C2)COC(=O)[C@]3(O)CC + CCn1c(-c2cccnc2C(C)OC)c2c3cc(ccc31)N1CCOC(CC(NC(=O)C(C(C)C)N(C)C(=O)C3(F)CCN(C(=O)C#CC(C)(C)N(C)C)CC3)C(=O)N3CCCC(N3)C(=O)OCC(C)(C)C2)C1
74.5 nM: IC50 (curve of first compound, second compound 0.003 µM)
46.7 nM: IC50 (curve of first compound, second compound 0.3 µM)
inactive: viability, T/C (second compound 0.000949 µM, first compound 0.000949 µM) 107% | viability, T/C (second compound 0.000949 µM, first compound 0.003 µM) 98.7% | viability, T/C (second compound 0.000949 µM, first compound 0.00949 µM) 87.1% | viability, T/C (second compound 0.000949 µM, first compound 0.03 µM) 62.1% | viability, T/C (second compound 0.000949 µM, first compound 0.0949 µM) 45.8% | viability, T/C (second compound 0.000949 µM, first compound 0.3 µM) 32.1% | viability, T/C (second compound 0.003 µM, first compound 0.000949 µM) 111% | viability, T/C (second compound 0.003 µM, first compound 0.003 µM) 88.7% | viability, T/C (second compound 0.003 µM, first compound 0.00949 µM) 83.6% | viability, T/C (second compound 0.003 µM, first compound 0.03 µM) 61.4% | viability, T/C (second compound 0.003 µM, first compound 0.0949 µM) 47.3% | viability, T/C (second compound 0.003 µM, first compound 0.3 µM) 29.1% | viability, T/C (second compound 0.00949 µM, first compound 0.000949 µM) 104% | viability, T/C (second compound 0.00949 µM, first compound 0.003 µM) 96.5% | viability, T/C (second compound 0.00949 µM, first compound 0.00949 µM) 83.8% | viability, T/C (second compound 0.00949 µM, first compound 0.03 µM) 63.6% | viability, T/C (second compound 0.00949 µM, first compound 0.0949 µM) 46.2% | viability, T/C (second compound 0.00949 µM, first compound 0.3 µM) 31.1% | viability, T/C (second compound 0.03 µM, first compound 0.000949 µM) 106% | viability, T/C (second compound 0.03 µM, first compound 0.003 µM) 96.8% | viability, T/C (second compound 0.03 µM, first compound 0.00949 µM) 78.2% | viability, T/C (second compound 0.03 µM, first compound 0.03 µM) 65.5% | viability, T/C (second compound 0.03 µM, first compound 0.0949 µM) 52.7% | viability, T/C (second compound 0.03 µM, first compound 0.3 µM) 27% | viability, T/C (second compound 0.0949 µM, first compound 0.000949 µM) 93.3% | viability, T/C (second compound 0.0949 µM, first compound 0.003 µM) 90% | viability, T/C (second compound 0.0949 µM, first compound 0.00949 µM) 80.4% | viability, T/C (second compound 0.0949 µM, first compound 0.03 µM) 63.7% | viability, T/C (second compound 0.0949 µM, first compound 0.0949 µM) 45.3% | viability, T/C (second compound 0.0949 µM, first compound 0.3 µM) 25.5% | viability, T/C (second compound 0.3 µM, first compound 0.000949 µM) 92.4% | viability, T/C (second compound 0.3 µM, first compound 0.003 µM) 89.7% | viability, T/C (second compound 0.3 µM, first compound 0.00949 µM) 72.2% | viability, T/C (second compound 0.3 µM, first compound 0.03 µM) 57.3% | viability, T/C (second compound 0.3 µM, first compound 0.0949 µM) 39.1% | viability, T/C (second compound 0.3 µM, first compound 0.3 µM) 21.4%
68 nM: IC50 (curve of first compound, second compound 0.000949 µM)
72 nM: IC50 (curve of first compound, second compound 0.00949 µM)
69.5 nM: IC50 (curve of first compound, second compound 0.0949 µM)
86.1 nM: IC50 (curve of first compound, second compound 0.03 µM)

CC(C)n1nc(-c2ccc3oc(N)nc3c2)c2c(N)ncnc21 + C=CC(=O)N1CCN(c2nc(OCC3CCCN3C)nc3c(F)c(-c4nc(N)cc(C)c4C(F)(F)F)c(Cl)cc23)C(C)C1
inactive: viability, T/C (second compound 0.00316 µM, first compound 0.000316 µM) 102% | viability, T/C (second compound 0.00316 µM, first compound 0.001 µM) 98.2% | viability, T/C (second compound 0.00316 µM, first compound 0.00316 µM) 91.9% | viability, T/C (second compound 0.00316 µM, first compound 0.01 µM) 74.8% | viability, T/C [7] 66.5% | viability, T/C [8] 42.7% | viability, T/C (second compound 0.01 µM, first compound 0.000316 µM) 100% | viability, T/C (second compound 0.01 µM, first compound 0.001 µM) 95.3% | viability, T/C (second compound 0.01 µM, first compound 0.00316 µM) 95.3% | viability, T/C (second compound 0.01 µM, first compound 0.01 µM) 76.7% | viability, T/C [9] 56% | viability, T/C [10] 47.8% | viability, T/C (second compound 0.0316 µM, first compound 0.000316 µM) 104% | viability, T/C (second compound 0.0316 µM, first compound 0.001 µM) 95.6% | viability, T/C (second compound 0.0316 µM, first compound 0.00316 µM) 80.1% | viability, T/C (second compound 0.0316 µM, first compound 0.01 µM) 76% | viability, T/C [11] 59.6% | viability, T/C [12] 43.5% | viability, T/C (second compound 0.1 µM, first compound 0.000316 µM) 96.2% | viability, T/C (second compound 0.1 µM, first compound 0.001 µM) 108% | viability, T/C (second compound 0.1 µM, first compound 0.00316 µM) 83.2% | viability, T/C (second compound 0.1 µM, first compound 0.01 µM) 84.5% | viability, T/C [13] 63% | viability, T/C [14] 46.1% | viability, T/C (second compound 0.316 µM, first compound 0.000316 µM) 99.7% | viability, T/C (second compound 0.316 µM, first compound 0.001 µM) 98% | viability, T/C (second compound 0.316 µM, first compound 0.00316 µM) 92.2% | viability, T/C (second compound 0.316 µM, first compound 0.01 µM) 79.6% | viability, T/C [15] 59.4% | viability, T/C [16] 46.9% | viability, T/C (second compound 1 µM, first compound 0.000316 µM) 90.6% | viability, T/C (second compound 1 µM, first compound 0.001 µM) 99.9% | viability, T/C (second compound 1 µM, first compound 0.00316 µM) 95.2% | viability, T/C (second compound 1 µM, first compound 0.01 µM) 81.1% | viability, T/C [17] 55.4% | viability, T/C [18] 43.1%
64.6 nM: IC50 [3]
74.3 nM: IC50 [2]
51.4 nM: IC50 [6]
77.2 nM: IC50 [4]
75 nM: IC50 [5]
69 nM: IC50 [1]

C=CC(=O)Nc1cc(Nc2nccc(-c3cn(C)c4ccccc34)n2)c(OC)cc1N(C)CCN(C)C
> 1000 nM: IC50 (curve of compound)
inactive: viability, T/C (compound 0.01 µM) 103% (2×) and 87.1% and 86.9% | viability, T/C (compound 0.0316 µM) 98.9% [middle of 4 runs] | viability, T/C (compound 0.1 µM) 88.7% [middle of 4 runs] | viability, T/C (compound 0.316 µM) 78.6% [middle of 4 runs] | viability, T/C (compound 1 µM) 64.3% [middle of 4 runs]
